# Results taken from paper PMC8406801, “Naringenin Inhibits Platelet Activation and Arterial Thrombosis Through Inhibition of Phosphoinositide 3-Kinase and Cyclic Nucleotide Signaling” (Frontiers in Pharmacology, 2021).
# Several values for one entry are separate records, joined by “and”; a condition that tells them apart may be missing. Equal entries are not always repeated. Structures can show the parent of a compound that is named as a salt.
# Columns and labels:
# [1] = tested on: VASP Ser239 phosphorylation; assay: Immunoblotting of phospho-VASP (Ser239) in ADP-stimulated washed platelets, with or without PKA, PKG, PKC inhibitors; assay type: cell-based, rat; details: ADP 10 μmol/L
# Description: For in vitro platelet aggregation, aliquots of washed platelets were preincubated with vehicle or various concentrations of naringenin for 5 min and stimulated with ADP (10 μmol/L) under stirring at 37°C for 5 min. For ex vivo platelet aggregation, PRP was incubated at 37°C for 5 min and stimulated with ADP (5 μmol/L) under stirring at 37 °C. The platelet aggregation was terminated by adding ethylenediaminetetraacetic acid (EDTA; 10 mM). Total protein was prepared using RIPA lysis buffer and protein content was determined by bicinchoninic acid (BCA) protein assay kit. Equal amounts of platelet proteins (30 μg) were separated on 10% SDS polyacrylamide gel electrophoresis (SDS-PAGE) and then transferred to poly vinylidene difluoride (PVDF) membranes and subjected to western blot. Blots were blocked with TBS-Tween 20 containing 5% BSA and probed with primary antibodies diluted in blocking solution at 4°C overnight followed by incubation with the corresponding HRP secondary antibodies. The protein bands were visualized using enhanced chemiluminescence (ECL).
# VASP is a substrate for cAMP- and cGMP- dependent protein kinases, which mediate cAMP- and cGMP-dependent inhibitory signaling in platelets, respectively. Increased cAMP levels followed by the activation of cAMP-dependent protein kinase A (PKA) phosphorylates VASP at position Ser157, whereas the elevation of cGMP leads to VASP phosphorylation at position Ser239 by cGMP-dependent protein kinase G (PKG) ([Aszódi et al., 1999]; [Li et al., 2003a]). To further examine whether naringenin modulates cAMP- or cGMP-mediated inhibitory signaling, the phosphorylation of VASP (Ser157 and Ser239) in washed platelets on stimulation with ADP were measured in the absence or presence of naringenin (100, 200, 400, and 800 μM). […] To further confirm the antiplatelet effects of naringenin through PKA-dependent signaling, the effects of naringenin on platelet aggregation were measured in the presence of PKG inhibitor (Rp-8-Br-PET-cGMPS) and PKA inhibitor (H89).
# FIGURE 7 Naringenin promotes VASP phosphorylation. The effects of naringenin on phosphorylation of VASP (at positions Ser 157 and Ser239) were measured in washed platelets upon stimulation with ADP (10 μmol/L) by western blotting (A). The blots shown are representative of three separate experiments. The phosphorylation levels were quantified by ImageJ 1.47v software. The level of phosphorylation obtained with vehicle control (0 μM) was taken as 1 (B,C). R represents the phosphorylation level in resting platelets. Data are expressed as means ± SD (n = 3). *p < 0.05, ***p < 0.001 compared with the vehicle control group. VASP phosphorylation at Ser239 was also analyzed in washed platelets incubated with 5 μmol/L PKA (H89), 30 μmol/L PKG (Rp-8-Br-PET-cGMPS), or 5 μmol/L PKC (GF109203X) inhibitors before treatment with naringenin (D). Washed platelets were incubated with vehicle or naringenin (200 μmol/L) at 37°C in the presence or absence of 5 μmol/L PKA (H89) or 30 μmol/L PKG (Rp-8-Br-PET-cGMPS) inhibitors. After treatment, platelets were stimulated with ADP (10 μmol/L) to trigger aggregation (E). Data are expressed as means ± SD (n = 6). ***p < 0.001 compared with the ADP-treated group, ^# p < 0.05, ^### p < 0.001 compared with naringenin alone or H89 alone.
# washed rat platelets [2] = assay: ADP (10 μM)-induced aggregation of washed rat platelets; assay type: cell-based; details: for platelet aggregation when incubated with naringenin after kinase inhibitor: naringenin 200 μmol/L; for Aggregation (%): raw data
# Description: Platelet-rich plasma (PRP) was obtained, and after the addition of 100 ng/ml PGE1, platelets were pelleted at 900 × g for 10 min. […] Washed platelets were preincubated with vehicle (0.4% dimethyl sulfoxide) or various concentrations of naringenin in the presence of 2 mM CaCl2 for 5 min at 37°C, and then further stimulated by ADP (10 μM), thrombin (0.2 U/mL) or collagen (2 μg/ml). The maximum platelet aggregation rate was detected within 5 min with continuous stirring.
# Platelet aggregation was induced by ADP using washed platelets and PRP. Washed platelets were preincubated with vehicle (containing 0.4% DMSO) or different doses (100, 200, 400, and 800 μM) of naringenin or naringin for 5 min before activation with ADP (10 μM) for 5 min.
# (§1) FIGURE 1 Effects of naringenin and naringin on platelet aggregation. Chemical structure of naringin (A) and naringenin (B). The effects of naringin (C) or naringenin (D) on PRP were measured following stimulation with 10 μmol/L ADP. Rat washed platelet aggregation performed with or without different concentrations of naringin (E) or naringenin (F) was recorded after stimulation with 10 μmol/L ADP. Similarly, Washed platelet aggregation performed with vehicle or various concentrations of naringenin was recorded after stimulation with 0.2 U/mL thrombin (G) or 2 μg/ml collagen (H). WP represents washed platelets. Data are expressed as means ± SD (n = 6), the level of aggregation obtained at 5 min with vehicle-treated samples (0 μM) was taken as 100%. *p < 0.05, **p < 0.01, ***p < 0.001 compared with the vehicle control group.
# washed rat platelets [3] = assay: as above; assay type: cell-based; details: Figure 7E
# [4] = tested on: PRP (platelet-rich plasma); assay: ADP (10 μmol/L)-induced aggregation of PRP in vitro; assay type: cell-based, rat; details: PRP, ADP 10 μmol/L, single replicates; for Aggregation (%): raw data
# Description: Washed rat platelets were prepared as described previously ([Gao et al., 2011]) with a minor modification. Briefly, rat blood was drawn from the abdominal aorta into the siliconized vacutainers containing 1:9 (v/v) 3.8% sodium citrate, supplemented with 100 ng/ml prostaglandin E1 (PGE1) and centrifuged at 300 × g for 6 min at room temperature. Platelet-rich plasma (PRP) was obtained, and after the addition of 100 ng/ml PGE1, platelets were pelleted at 900 × g for 10 min. Platelets were washed once in Tyrode’s buffer (12 mM NaHCO3, 138 mM NaCl, 5.5 mM glucose, 2.9 mM KCl, 2 mM MgCl2, 0.42 mM NaH2PO4, 10 mM HEPES, pH 7.4) containing 100 ng/ml PGE1, and finally resuspended in Tyrode’s buffer containing 0.02 U/mL apyrase to a final concentration of 4×10^8 cells/mL. Washed platelets were preincubated with vehicle (0.4% dimethyl sulfoxide) or various concentrations of naringenin in the presence of 2 mM CaCl2 for 5 min at 37°C, and then further stimulated by ADP (10 μM), thrombin (0.2 U/mL) or collagen (2 μg/ml). The maximum platelet aggregation rate was detected within 5 min with continuous stirring.
# Platelet aggregation was induced by ADP using washed platelets and PRP. Washed platelets were preincubated with vehicle (containing 0.4% DMSO) or different doses (100, 200, 400, and 800 μM) of naringenin or naringin for 5 min before activation with ADP (10 μM) for 5 min. […] For example, naringenin, at doses of 100 and 800 μM, decreased ADP-induced platelet aggregation to 54.5 ± 6.2% and 6.3 ± 1.7%, respectively (n = 6; p < 0.001, control group platelet aggregation was taken as 100%) (Figure 1F). […] Because dietary flavonoids have been reported to bind plasma proteins and cause the lowering of inhibitory potency in PRP ([Wright et al., 2013]), the ability of naringenin and naringin on platelet function in PRP was investigated to compare their effects with washed platelets.
# as §1
# [5] = inhibitor 5 μmol/L before treatment with naringenin
structure (smiles),measurement,setting,value
"CN(C)CCCn1cc(C2=C(c3c[nH]c4ccccc34)C(=O)NC2=O)c2ccccc21 [GF109203X, reference compound]",naringenin-induced phosphorylation of VASP at Ser239 after kinase inhibitor,[1]; [5],only small changes
"O=S(=O)(NCCNCC=Cc1ccc(Br)cc1)c1cccc2cnccc12 [H89, N-[2-(p-bromocinnamylamino)ethyl]-5-isoquinolinesulfonamide]","level of platelet aggregation, inhibitor alone","washed rat platelets [2]; ADP 10 μmol/L, inhibitor 5 μmol/L, without naringenin",did not affect the level of platelet aggregation
same,platelet aggregation when incubated with naringenin after kinase inhibitor,"washed rat platelets [2]; inhibitor 5 μmol/L pre-treatment, ADP 10 μmol/L",significantly restored platelet aggregation levels
same,Aggregation (%),washed rat platelets [3]; H89 (5 μM)+ADP (10 μM),62.7% and 67.1% and 68.1% and 68.8% and 64.1% and 69.2%
same,naringenin-induced phosphorylation of VASP at Ser239 after kinase inhibitor,[1]; [5],inhibited the increase in phosphorylation of VASP at Ser239
"C[C@@H]1O[C@@H](O[C@H]2[C@H](Oc3cc(O)c4c(c3)O[C@H](c3ccc(O)cc3)CC4=O)O[C@H](CO)[C@@H](O)[C@@H]2O)[C@H](O)[C@H](O)[C@H]1O [Naringin, naringin, reference compound]",activity at 200 µM,"washed rat platelets [2]; Rattus norvegicus, Platelet, washed platelets, ADP 10 μmol/L, compound 200 μM, single replicates, read-out: Aggregation % of control",72.6%
same,activity at 400 µM,"washed rat platelets [2]; Rattus norvegicus, Platelet, washed platelets, ADP 10 μmol/L, compound 400 μM, single replicates, read-out: Aggregation % of control",79.8%
same,ADP-induced platelet aggregation (control group taken as 100%),"washed rat platelets [2]; washed platelets, ADP 10 μM, compound 800 μM, mean ± SD, n = 6",70.8 ± 7.1%
same,Aggregation (%),"washed rat platelets [2]; washed platelets, ADP 10 μmol/L, compound 100 μM, single replicates",66.8% and 55.6% and 57.3% and 61.8% and 52.0% and 65.0%
same,Aggregation % of control,"washed rat platelets [2]; washed platelets, ADP 10 μmol/L, compound 100 μM, single replicates, 100 µM",94.6 % of control and 78.7 % of control and 81.1 % of control and 87.5 % of control and 73.6 % of control and 92.0 % of control
same,Aggregation (%),"washed rat platelets [2]; washed platelets, ADP 10 μmol/L, compound 200 μM, single replicates",51.3% and 57.7% and 55.0% and 59.4% and 50.0% and 54.0%
same,Aggregation % of control,"washed rat platelets [2]; washed platelets, ADP 10 μmol/L, compound 200 μM, single replicates, 200 µM",81.7 % of control and 77.8 % of control and 84.1 % of control and 70.8 % of control and 76.4 % of control
same,Aggregation (%),"washed rat platelets [2]; washed platelets, ADP 10 μmol/L, compound 400 μM, single replicates",56.4% and 55.5% and 55.4% and 51.0% and 52.3% and 46.6%
same,Aggregation % of control,"washed rat platelets [2]; washed platelets, ADP 10 μmol/L, compound 400 μM, single replicates, 400 µM",78.6 % of control and 78.4 % of control and 72.2 % of control and 74.0 % of control and 66.0 % of control
same,Aggregation (%),"washed rat platelets [2]; washed platelets, ADP 10 μmol/L, compound 800 μM, single replicates",58.1% and 48.7% and 49.2% and 43.6% and 47.5% and 53.0%
same,Aggregation % of control,"washed rat platelets [2]; washed platelets, ADP 10 μmol/L, compound 800 μM, single replicates, 800 µM",82.2 % of control and 68.9 % of control and 69.6 % of control and 61.7 % of control and 67.2 % of control and 75.0 % of control
same,Aggregation (%),[4]; compound 100 μM,56.0% and 55.8% and 53.6% and 54.0% and 60.0%
same,Aggregation % of control,"[4]; compound 100 μM, 100 µM",97.5 % of control and 100.8 % of control and 93.6 % of control and 94.3 % of control and 104.8 % of control
same,Aggregation (%),[4]; compound 200 μM,54.6% and 53.1% and 52.4% and 49.6% and 54.8%
same,Aggregation % of control,"[4]; compound 200 μM, 200 µM",92.8 % of control and 97.1 % of control and 91.5 % of control and 86.6 % of control and 95.7 % of control
same,Aggregation (%),[4]; compound 400 μM,55.9% and 54.0% and 46.2% and 49.8% and 51.2%
same,Aggregation % of control,"[4]; compound 400 μM, 400 µM",96.9 % of control and 94.3 % of control and 80.7 % of control and 87.0 % of control and 89.4 % of control
same,Aggregation (%),[4]; compound 800 μM,46.8% and 40.4% and 51.9% and 43.4%
same,Aggregation % of control,"[4]; compound 800 μM, 800 µM",85.1 % of control and 85.9 % of control and 70.6 % of control and 90.7 % of control and 75.8 % of control
same,activity at 100 µM,"[4]; Rattus norvegicus, compound 100 μM, read-out: Aggregation % of control",97.8%
same,activity at 200 µM,"[4]; Rattus norvegicus, compound 200 μM, read-out: Aggregation % of control",95.4%
same,activity at 400 µM,"[4]; Rattus norvegicus, compound 400 μM, read-out: Aggregation % of control",97.6%
"O=c1c2nc(Br)n([C@@H]3O[C@@H]4CO[P@@](O)(=S)O[C@H]4[C@H]3O)c2nc2[nH]c(-c3ccccc3)cn12 [Rp-8-Br-PET-cGMPS, Rp-8-Bromo-β-phenyl-1, N2-ethenoguanosine 3´, 5´-cyclic mono-phosphorothioate sodium salt]",platelet aggregation when incubated with naringenin after kinase inhibitor,"washed rat platelets [2]; inhibitor 30 μmol/L preincubation, ADP 10 μmol/L",did not affect the final extent of platelet aggregation
same,Aggregation (%),washed rat platelets [3]; Rp-8-Br-PET-cGMPS (30 μM)+ADP (10 μM),67.3% and 69.8% and 64.5% and 66.3% and 65.0% and 70.4%
same,naringenin-induced phosphorylation of VASP at Ser239 after kinase inhibitor,[1]; inhibitor 30 μmol/L before treatment with naringenin,only small changes
